# Reference: ChEMBL document CHEMBL5620394, “Synthesis of new antiproliferative 1,3,4-substituted-pyrrolo[3,2-c]quinoline derivatives, biological and in silico insights” (Eur J Med Chem, 2023)
# Activity calls are given as the source filed them. The rule behind the calls is not given here.
# Assays:
# [1] = tested on: UO-31; test: Antiproliferative activity against human UO-31 cells assessed as cell growth at 10 uM incubated for 48 hrs by sulforhodamine B assay relative to control; type: functional; conditions: read-out: Activity
# [2] = tested on: LOX IMVI; test: Antiproliferative activity against human LOX IMVI cells assessed as cell growth at 10 uM incubated for 48 hrs by sulforhodamine B assay relative to control; type: functional; conditions: read-out: Activity
# [3] = tested on: EKVX; test: Antiproliferative activity against human EKVX cells assessed as cell growth at 10 uM incubated for 48 hrs by sulforhodamine B assay relative to control; type: functional; conditions: read-out: Activity
# [4] = tested on: UACC-257; test: Antiproliferative activity against human UACC-257 cells assessed as cell growth at 10 uM incubated for 48 hrs by sulforhodamine B assay relative to control; type: functional; conditions: read-out: Activity
# [5] = tested on: HCT-15; test: Antiproliferative activity against human HCT-15 cells assessed as cell growth at 10 uM incubated for 48 hrs by sulforhodamine B assay relative to control; type: functional; conditions: read-out: Activity
# [6] = tested on: NCI-H226; test: Antiproliferative activity against human NCI-H226 cells assessed as cell growth at 10 uM incubated for 48 hrs by sulforhodamine B assay relative to control; type: functional; conditions: read-out: Activity
# [7] = tested on: CAKI-1; test: Antiproliferative activity against human CAKI-1 cells assessed as cell growth at 10 uM incubated for 48 hrs by sulforhodamine B assay relative to control; type: functional; conditions: read-out: Activity
# [8] = tested on: MOLT-4; test: Antiproliferative activity against human MOLT-4 cells assessed as cell growth at 10 uM incubated for 48 hrs by sulforhodamine B assay relative to control; type: functional; conditions: read-out: Activity
# [9] = tested on: A549; test: Antiproliferative activity against human A549 cells assessed as cell growth at 10 uM incubated for 48 hrs by sulforhodamine B assay relative to control; type: functional; conditions: read-out: Activity
# [10] = tested on: T47D; test: Antiproliferative activity against human T47D cells assessed as cell growth at 10 uM incubated for 48 hrs by sulforhodamine B assay relative to control; type: functional; conditions: read-out: Activity
# [11] = tested on: MCF7; test: Antiproliferative activity against human MCF7 cells assessed as cell growth at 10 uM incubated for 48 hrs by sulforhodamine B assay relative to control; type: functional; conditions: read-out: Activity
# [12] = tested on: SK-OV-3; test: Antiproliferative activity against human SK-OV-3 cells assessed as cell growth at 10 uM incubated for 48 hrs by sulforhodamine B assay relative to control; type: functional; conditions: read-out: Activity
# [13] = tested on: SF-295; test: Antiproliferative activity against human SF-295 cells assessed as cell growth at 10 uM incubated for 48 hrs by sulforhodamine B assay relative to control; type: functional; conditions: read-out: Activity
# [14] = tested on: KM12; test: Antiproliferative activity against human KM12 cells assessed as cell growth at 10 uM incubated for 48 hrs by sulforhodamine B assay relative to control; type: functional; conditions: read-out: Activity
# [15] = tested on: MDA-MB-435; test: Antiproliferative activity against human MDA-MB-435 cells assessed as cell growth at 10 uM incubated for 48 hrs by sulforhodamine B assay relative to control; type: functional; conditions: read-out: Activity
# [16] = tested on: K562; test: Antiproliferative activity against human K562 cells assessed as cell growth at 10 uM incubated for 48 hrs by sulforhodamine B assay relative to control; type: functional; conditions: read-out: Activity
# [17] = tested on: SNB-75; test: Antiproliferative activity against human SNB-75 cells assessed as cell growth at 10 uM incubated for 48 hrs by sulforhodamine B assay relative to control; type: functional; conditions: read-out: Activity
# [18] = tested on: CCRF-CEM; test: Antiproliferative activity against human CCRF-CEM cells assessed as cell growth at 10 uM incubated for 48 hrs by sulforhodamine B assay relative to control; type: functional; conditions: read-out: Activity
# [19] = tested on: MDA-MB-468; test: Antiproliferative activity against human MDA-MB-468 cells assessed as cell growth at 10 uM incubated for 48 hrs by sulforhodamine B assay relative to control; type: functional; conditions: read-out: Activity
# [20] = tested on: IGROV-1; test: Antiproliferative activity against human IGROV-1 cells assessed as cell growth at 10 uM incubated for 48 hrs by sulforhodamine B assay relative to control; type: functional; conditions: read-out: Activity
# [21] = tested on: PC-3; test: Antiproliferative activity against human PC-3 cells assessed as cell growth at 10 uM incubated for 48 hrs by sulforhodamine B assay relative to control; type: functional; conditions: read-out: Activity
# [22] = tested on: HCT-116; test: Antiproliferative activity against human HCT-116 cells assessed as cell growth at 10 uM incubated for 48 hrs by sulforhodamine B assay relative to control; type: functional; conditions: read-out: Activity
# [23] = tested on: RPMI-8226; test: Antiproliferative activity against human RPMI-8226 cells assessed as cell growth at 10 uM incubated for 48 hrs by sulforhodamine B assay relative to control; type: functional; conditions: read-out: Activity
# [24] = tested on: HOP-62; test: Antiproliferative activity against human HOP-62 cells assessed as cell growth at 10 uM incubated for 48 hrs by sulforhodamine B assay relative to control; type: functional; conditions: read-out: Activity
# [25] = tested on: SR; test: Antiproliferative activity against human SR cells assessed as cell growth at 10 uM incubated for 48 hrs by sulforhodamine B assay relative to control; type: functional; conditions: read-out: Activity
# [26] = tested on: MDA-MB-231; test: Antiproliferative activity against human MDA-MB-231 cells assessed as cell growth at 10 uM incubated for 48 hrs by sulforhodamine B assay relative to control; type: functional; conditions: read-out: Activity
# [27] = tested on: NCI-H522; test: Antiproliferative activity against human NCI-H522 cells assessed as cell growth at 10 uM incubated for 48 hrs by sulforhodamine B assay relative to control; type: functional; conditions: read-out: Activity
# [28] = tested on: ACHN; test: Antiproliferative activity against human ACHN cells assessed as cell growth at 10 uM incubated for 48 hrs by sulforhodamine B assay relative to control; type: functional; conditions: read-out: Activity
# [29] = tested on: 786-0; test: Antiproliferative activity against human 786-0 cells assessed as cell growth at 10 uM incubated for 48 hrs by sulforhodamine B assay relative to control; type: functional; conditions: read-out: Activity
# [30] = tested on: HT-29; test: Antiproliferative activity against human HT-29 cells assessed as cell growth at 10 uM incubated for 48 hrs by sulforhodamine B assay relative to control; type: functional; conditions: read-out: Activity
# [31] = tested on: UACC-62; test: Antiproliferative activity against human UACC-62 cells assessed as cell growth at 10 uM incubated for 48 hrs by sulforhodamine B assay relative to control; type: functional; conditions: read-out: Activity
# [32] = tested on: HL-60; test: Antiproliferative activity against human HL-60 cells assessed as cell growth at 10 uM incubated for 48 hrs by sulforhodamine B assay relative to control; type: functional; conditions: read-out: Activity
# [33] = tested on: LA-N-5; test: Antiproliferative activity against human LA-N-5 cells assessed as reduction in cell growth at 10 to 100 uM incubated for 4 hrs by MTS assay; type: functional, cell-based; conditions: dose 10-100 µM
# [34] = tested on: MCF7; test: Antiproliferative activity against human MCF7 cells assessed as reduction in cell growth at 10 to 100 uM incubated for 4 hrs by MTS assay; type: functional, cell-based; conditions: dose 10-100 µM
# [35] = tested on: MCF7; test: Antiproliferative activity against human MCF7 cells assessed as inhibition of cell growth incubated for 4 hrs by MTS assay; type: functional
# [36] = tested on: HeLa; test: Antiproliferative activity against human HeLa cells assessed as inhibition of cell growth incubated for 4 hrs by MTS assay; type: functional
# [37] = Antiproliferative activity against human 16HBE14o- cells assessed as inhibition of cell growth incubated for 4 hrs by MTS assay; type: toxicity, cell-based; conditions: read-out: IG50
SMILES,growth at 10 µM [1],growth at 10 µM [2],growth at 10 µM [4],growth at 10 µM [6],growth at 10 µM [7],growth at 10 µM [8],growth at 10 µM [10],growth at 10 µM [11],growth at 10 µM [16],growth at 10 µM [17],growth at 10 µM [18],growth at 10 µM [21],growth at 10 µM [23],growth at 10 µM [25],growth at 10 µM [26],growth at 10 µM [27],growth at 10 µM [29],growth at 10 µM [30],growth at 10 µM [31],growth at 10 µM [32],further results
CC(=O)c1c(C)n(CCCCl)c2c1c(-c1ccc3c(c1)OCO3)nc1ccccc12,85.4%,90%,102%,115%,86.7%,67.3%,71.5%,83.2%,71%,69.4%,77.1%,76.2%,83.3%,53.1%,95.8%,63.7%,–,–,–,–,growth at 10 µM [3]: 86%; growth at 10 µM [5]: 87%; growth at 10 µM [9]: 81.7%; growth at 10 µM [12]: 97.2%; growth at 10 µM [13]: 76.7%; growth at 10 µM [14]: 87.3%; growth at 10 µM [15]: 93.6%; growth at 10 µM [19]: 101%; growth at 10 µM [20]: 93.9%; growth at 10 µM [22]: 93.6%; growth at 10 µM [24]: 96.7%; growth at 10 µM [28]: 84.4%
CC(=O)c1c(C)[nH]c2c1c(-c1cc3c(cc1Br)OCO3)nc1ccccc12,61.5%,89.3%,105%,99.7%,95.6%,83.8%,91.4%,70.2%,85.2%,84%,92%,85.5%,96.9%,74%,88.2%,77%,–,–,–,–,growth at 10 µM [3]: 89.6%; growth at 10 µM [5]: 97.2%; growth at 10 µM [9]: 88.7%; growth at 10 µM [12]: 96.7%; growth at 10 µM [13]: 94.2%; growth at 10 µM [14]: 91%; growth at 10 µM [15]: 95.6%; growth at 10 µM [19]: 109%; growth at 10 µM [20]: 82.5%; growth at 10 µM [22]: 98.9%; growth at 10 µM [24]: 91.5%; growth at 10 µM [28]: 93%
CC(=O)c1c(C)n(-c2ccccc2)c2c1c(-c1ccc(C)o1)nc1ccccc12,79.1%,–,90.8%,41%,85.3%,76.7%,99.7%,88.4%,71.6%,93.8%,74.2%,69.6%,70.5%,80.3%,73.3%,71.1%,93.6%,68.4%,85.1%,63.4%,Activity [33]: Active
CC(=O)c1c(C)n(-c2ccccc2)c2c1c(-c1ccccc1)nc1ccccc12,59.6%,–,98.1%,84.2%,72.3%,77.6%,102%,89.6%,76.8%,75.1%,95.9%,85.7%,87.5%,79.5%,76.3%,77%,88.5%,–,70.4%,90.7%,Activity [33]: Active; Activity [34]: Active
CC(=O)c1c(C)n(C)c2c1c(-c1ccccc1)nc1ccccc12,68.8%,–,96.4%,88.4%,87.2%,89.4%,98.9%,95.6%,102%,85.8%,92.7%,69.8%,79.4%,94.7%,94.3%,95.6%,101%,112%,87.8%,76.8%,Activity [34]: Active
CCOC(=O)c1c(C)n(-c2ccccc2)c2c1c(-c1ccccc1)nc1ccccc12,80.8%,–,94.7%,87%,91%,84.3%,95.9%,85.1%,86.4%,80.4%,88.8%,74.5%,88.1%,89.9%,73.4%,81.2%,86%,100%,74.7%,89.1%,–
CC(=O)c1c(C)[nH]c2c1c(-c1ccccc1)nc1ccccc12,36.6%,–,75.1%,76.7%,54%,106%,82.5%,73.7%,92.6%,42.3%,87.2%,78.6%,87.9%,71.9%,84.4%,72.3%,76.7%,92.8%,62.4%,82.7%,IG50 [35]: 10 µM; IG50 [36]: 10 µM; GI50 at 4 h [37]: 10 µM; Activity [34]: Active
CC(=O)c1c(C)[nH]c2c1c(-c1cc(Cl)cc(Cl)c1O)nc1ccccc12,56.8%,73.6%,118%,87.4%,77.6%,51.6%,61.9%,74%,74.8%,72.8%,58.2%,71.4%,66.7%,52.2%,72%,70%,–,–,–,–,growth at 10 µM [3]: 72.8%; growth at 10 µM [5]: 73.1%; growth at 10 µM [9]: 83.5%; growth at 10 µM [12]: 75.2%; growth at 10 µM [13]: 74.1%; growth at 10 µM [14]: 75.1%; growth at 10 µM [15]: 85.6%; growth at 10 µM [19]: 89.7%; growth at 10 µM [20]: 75.6%; growth at 10 µM [22]: 75.2%; growth at 10 µM [24]: 79.9%; growth at 10 µM [28]: 71.2%
